Data as given in patent publication US5482975A, “Adenosine diphosphoribose polymerase binding nitroso aromatic compounds useful as retroviral inactivating agents, anti-retroviral agents and anti-tumor agents” (priority 1993, dated 1996).

Columns and labels:
anti-tumor and anti-HIV = assay: biological action of nitroso compounds (anti-tumor and anti-HIV, summary); type: cell-based; conditions: effective even after exposure of cells as short as 30 minutes
H9 cells = assay: [3H] thymidine uptake, H9 cells (FIG. 2B); type: cell-based, human; conditions: 250 μM; 10% FCS
855-2 cells = assay: [3H] thymidine uptake / growth, 855-2 cells (FIG. 2A, E, F; FIG. 3); type: cell-based, human
Description: FIGS. 2A-2F are a composite of graphs displaying the inhibitory effects of the ADRPT ligands on (FIG. 2A) 855-2 cells (a cell line of human B-cell lineage acute lymphoblastic leukemia), (FIG. 2B) H9 cells (a cell line of human T-cell lineage acute lymphoblastic leukemia), FIG. (2C) HL-60 cells (a cell line of human acute nonlymphoblastic leukemia) and (FIG. 2D) K562 cells (a cell line of human chronic myelogenous leukemia). These cells were cultured while under the influence of the growth factors in 10% fetal bovine serum (FCS), whereas in (FIG. 2E) and (FIG. 2F) the 855-2 cells were cultured in the presence of autocrine growth factor activity (AGF) or low molecular weight-B-cell growth factor (BCGF, a T-cell derived lymphokine), respectively.
Experiments using HL-60 cells (FIG. 2C) provided similar conclusions.
855-2 cells that were grown in media with (1) 10% fetal bovine serum, (2) autocrine growth factor (AGF) and (3) low molecular weight-BCGF (a T cell derived lymphokine) were exposed to increasing concentrations of the ADRPT ligands.

L1210 murine leukemia = L1210 murine leukemia in vivo; design: species or system BDF mice; conditions: 2 mg/kg i.p. twice a day, 6 consecutive days
[1] = system: various cancer cells (855-2, HL-60, D32, D37, CRL 7712, 186 medulla, L1210, MDA-468); assay: functions of various cancer cells in presence of compounds (FIGS. 4-9); type: cell-based; conditions: summary statement
Description: (§1) Experiments were performed in which the functions of various cancer cells (855-2 and HL-60 leukemia cells, D32, D37 and CRL 7712 glioblastoma cell lines, 186 medulla tumor cell line, L1210 murine leukemia cell line, MDA-468 human breast tumor cell line) and normal cells (neutrophil leukocytes and bone marrow or peripheral blood stream cells) were assessed in the absence or presence of the compounds.

HL-60 cells = assay: colony formation (CFU) of leukemic cells in semi-solid medium (FIG. 4); type: cell-based, human
Description: as §1

HIV-1 = assay: inhibition of HIV infection, virus titer in stimulated human lymphoblasts; type: cell-based; conditions: 10 μM; 30 min exposure, day 10; virus alone 5.25
Description: VIII. Anti-HIV action of NOBP, NOBA and NOQ on stimulated human lymphoblasts.
Exposure to the two drugs was only for 30 minutes at the commencement of viral infection, and drugs were never re-added. The results given in Table III provide the ID50 of HIV titer 10 days after infection of cell cultures with HIV.

[2] = system: HIV-1 (MN strain) virions; assay: zinc loss from HIV-1 virions; type: biochemical
Description: Experiments were performed to determine if NOBA is capable of ejecting zinc from intact virions. HIV-1(MN strain) was produced, purified and concentrated as described in Bess et al., J. Virol. 66:840-847 (1992). The concentrated virus was diluted to 60 times that of culture fluid in TNE buffer (0.01 M Tris-HCl, 0.1M NaCl, 1 mM EDTA, pH 7.2) and incubated with 3000 or 6000 μM NOBA at 37° C. The virus was then pelleted and washed with TNE buffer to remove weakly bound zinc. The quantity of zinc in the resulting viral pellets was determined as described in Bess et al., J. Virol. 66:840-847 (1992).

Zn(HIV1-F1) = Zn(HIV1-F1) (Human immunodeficiency virus type 1 lw12.3 isolate, UniProt Q70622); assay: NMR study of Zn ejection from HIV-1 NC zinc finger peptide; type: biochemical; design: parent Gag (Gag-Pol) polyprotein
Description: The * and + symbols denote the aromatic proton signals of the zinc-coordinated and zinc-free His 9 residue. Upon completion of the reaction, reflected by complete ejection of zinc (t=90 min), 50% of the NOBA remained unreacted indicating a 1:1 reaction stoichiometry. NOBA (3-nitrosobenzamide), was synthesized described elsewhere in this application.
To determine if NOBA is capable of ejecting zinc from retroviral-type zinc fingers, NMR studies were performed on a peptide with amino acid sequence corresponding to the N-terminal CCHC zinc finger of the HIV-1 NC protein, Zn(HIV1-F1), South, et al., J. Am. Chem. Soc. 111:395-396 (1989), South, et al., Biochem Pharm. 40:123-129 (1990 ), Summers, et al., Biochemistry 29:329-340 (1990). NMR spectra of Zn(HIV-F1) were performed before and after the addition of NOBA (3-nitrosobenzamide). […] Chem Soc. 111:395-396 (1989), and three-dimensional structural studies have shown that the peptide adopts a structure that is essentially identical to the structure of the corresponding region in the intact NC protein, South, et al., Biochemistry 29:7786-7789 (1990). The down-field region of the ^1 H NMR spectrum showing the signals due to the aromatic proton of His 9 and Phe 2 is illustrated in FIG. 10 (bottom). Addition of two molar equivalents of NOBA results in the loss of the signals due to zinc-bound histidine (denoted by *) and the appearance of broad signals representative of zinc-free histidine (denoted by +). Other signals in the spectrum are due to NOBA protons. […] By comparison, a 10-fold molar excess of EDTA is required to remove zinc from Zn(HIV-1-F1), Summers, et al., J. Cell Biochem 45:41-48 (1991).

Human Neutrophils = assay: superoxide generation by human neutrophils; conditions: 10 μM
[3] = system: normal cells (neutrophil leukocytes and bone marrow or peripheral blood cells); assay: viability / functions of normal cells in presence of compounds
Description: as §1

NC(=O)c1cccc(N=O)c1 [NOBA, 3-nitrosobenzamide]
anti-tumor and anti-HIV activity (anti-tumor and anti-HIV): highly active
inhibition of thymidine uptake (H9 cells): almost complete inhibition
growth arrest in increasing FCS (855-2 cells; 10 μM, increasing FCS concentrations): Growth arrest occurs irrespective of the concentration of FCS
inhibitory effects with different growth factors (855-2 cells; 10% fetal bovine serum, AGF or BCGF): potent inhibitory effects
in vivo chemotherapeutic response (L1210 murine leukemia): highly significant in vivo chemotherapeutic response
toxic effects in mice (L1210 murine leukemia): no toxic effects
effectiveness against tumor cells [1]: highly effective
ability to form colonies (CFU) (HL-60 cells): inhibit the ability
Virus Titer (log ID50) (HIV-1): 1.05 log ID50
loss of viral proteins in the pellet ([2]; 3000 or 6000 μM, 37° C., p24, gp120 RIA, SDS-PAGE): No significant loss of viral proteins
loss of infectivity ([2]; concentrated HIV-1 (60x)): complete loss of infectivity
losses of viral zinc ([2]; concentrated HIV-1 (60x)): 50-83%
time to complete ejection of zinc (Zn(HIV1-F1); 2 mM NOBA, 1 mM Zn(HIV1-F1), D2O, pH*=6.2, 30° C.): 90 min
NOBA remaining unreacted on completion (Zn(HIV1-F1); 2 mM NOBA, t=90 min): 50%
stoichiometry of reaction (Zn(HIV1-F1); after 90 minutes): reacts stoichiometrically with Zn(HIV1-F1)
zinc-bound His signals (Zn(HIV1-F1); two molar equivalents, after 90 min.): no signals attributable to the zinc-bound His could be detected
reduction in superoxide generation (Human Neutrophils): Only minor reductions
Generation of Superoxide by Human Neutrophils (Human Neutrophils; mean + S.D., n = 11, PMN + PMA): 44.4 ± 10.0 nmol 02^- /hr/10^5 cells
effect on colony formation by normal cells ([3]; anti-leukemic doses, rhesus bone marrow and human peripheral blood stem cells, FIG. 5): minimal effect on normal cells
effect on viability of normal cells ([3]; tumor cell inhibitory concentrations): not to affect adversely the viability of normal cells
